Where “and” joins values, the source holds several entries; their conditions need not be identical. Equal values may be shown once.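 Assay format: 96-well plates, 48-hour exposure. The concentration for 50% growth inhibition is given as GI50. At the TGI there is no net growth.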

The first assay relates to A498 renal. Nature of the assay: NCI-60 cell line screen, 48 h.
In the case of `CC(C)CC(N)C(=O)OCN1C(=O)C2C3C=CC(C2C1=O)C1C2C(=O)N(COC(=O)C(N)CC(C)C)C(=O)C2C31` (centres undefined), the TGI is > 100 µM.

On to `CCCCCCCCCC[C@@H](O)[C@H]1CC[C@H]([C@H]2CC[C@H]([C@H](O)CCCCCCCCCC[C@@H]3CC(CC(C)=O)C(=O)O3)O2)O1` (some centres undefined), for which the GI50 was 7.44 µM and the TGI was > 50 µM.

With `COC(=O)c1cc(CC(C)C)c2c(c1)[nH]c1ccccc12`, the TGI is > 100 µM.

With `C[N+](C)(C)CC(=O)N/N=c1\cc(C(=O)Nc2ccc(N=O)cc2C#N)oc2cc(O)ccc12`, the TGI is > 100 µM.

For the compound `OCC1CCCC(n2cnc3c(=S)nc[nH]c32)O1` (centres undefined), the TGI is > 100 µM.

Consider `COc1ccc(/C(=C/n2ccnc2)C(=O)c2ccc(OC)c(OC)c2)cc1`, for which the TGI was > 100 µM.

For `O=C1CC2(C[C@@H]3CCCCCCCCC[C@@H](C3)C2)N1` (some centres undefined), the TGI came out at 30.9 µM.

On to `CCCN=C1CC(C)Nc2ccccc2N1` (centres undefined), for which the TGI is > 100 µM.

`CC(C)C(Sc1nc(-c2ccccc2)c(-c2ccccc2)[nH]1)C(=O)NNC(=S)Nc1ccccc1` (centres undefined) returned a TGI of 44.5 µM.

In the case of `COC1O[C@H]2CCN(C(=O)OCc3ccccc3)[C@H]2[C@H]1OCc1ccccc1` (some centres undefined), the TGI was > 100 µM.

On to `CC(C)(C)OC(=O)NC(C)(C)C(=O)NCCC(=O)O`, for which the TGI is > 100 µM.

As to `CC12CC(c3ccccc3O1)C(C(=O)Nc1ccc(F)cc1)C(=O)N2` (centres undefined), the TGI is > 100 µM.

Consider `COc1ccc(C2C(Cl)C(=O)N2NC(=O)c2ccc(NC(C)=O)cc2)cc1` (centres undefined), for which the TGI is > 100 µM.

Take `Cc1c(Cl)cccc1NC(=O)C(=O)C1C(=O)CC(C)(C)CC1=O`: the TGI is > 100 µM.

As for `O=C1O[C@@H](c2ccccc2)C[C@@H]1CN1CCOCC1`, the TGI is > 100 µM.

`N#C/C(=C\NC(=S)Nc1ccc(S(=O)(=O)Nc2ccccn2)cc1)C(N)=O`: the TGI was > 100 µM.

As to `COC1(C)CC2N(C(=O)c3ccccc3)N=C(c3ccccc3)CC2(C)O1` (centres undefined), the TGI was > 100 µM.

In the case of `O=c1oc2ccccc2c(O)c1C(c1cc(OCc2ccccc2)cc(OCc2ccccc2)c1)c1c(O)c2ccccc2oc1=O`, the TGI came to 32.1 µM.

Regarding `Nc1ccccc1Nc1ccccc1C(=O)[O-].Nc1ccccc1Nc1ccccc1C(=O)[O-].[Cu+2]`, the TGI is > 100 µM.

On to `Cc1cc(-c2nc3ccccc3s2)ccc1NS(=O)(=O)O`, for which the TGI is > 100 µM.

`CCOC(=O)C(OCC1CC=CCC1)Sc1ccccc1` (centres undefined): the TGI was > 100 µM.

Turning to `COc1cc(COC(=O)N[C@H](C(=O)O)C(C)(C)C)c([N+](=O)[O-])cc1OC`, the TGI was > 100 µM.

On to `Cc1c(/C=N\NC(=S)N2CCN(C(=S)N/N=C\c3c(C)n(C)n(-c4ccccc4)c3=O)CC2)c(=O)n(-c2ccccc2)n1C`, for which the TGI was > 100 µM.

Another assay concerns MOLT-4 leukemia. Put plainly: NCI-60 cell line screen, 48 h.
With `Cc1cn(C2CC(N)C(CN)O2)c(=O)[nH]c1=O` (centres undefined), the TGI was > 100 µM.

In the case of `Nc1nc2ncc(SCc3ccc(C(=O)NC(CCC(=O)O)C(=O)O)cc3)cc2c(=O)[nH]1` (centres undefined), the TGI is > 100 µM.

With `CC(C)CC(N)C(=O)OCN1C(=O)C2C3C=CC(C2C1=O)C1C2C(=O)N(COC(=O)C(N)CC(C)C)C(=O)C2C31` (centres undefined), the TGI is > 100 µM.

Turning to `O=C1CC(O)c2c1csc2Br` (centres undefined), the TGI was 55.3 µM.

As for `CCCCCCCCCC[C@@H](O)[C@H]1CC[C@H]([C@H]2CC[C@H]([C@H](O)CCCCCCCCCC[C@@H]3CC(CC(C)=O)C(=O)O3)O2)O1` (some centres undefined), the TGI was > 50 µM.

With `COC(=O)c1cc(CC(C)C)c2c(c1)[nH]c1ccccc12`, the TGI was > 100 µM.

Take `C[N+](C)(C)CC(=O)N/N=c1\cc(C(=O)Nc2ccc(N=O)cc2C#N)oc2cc(O)ccc12`: the TGI is > 100 µM.

On to `N#CCCN(c1ccc(C=Nc2cccc([N+](=O)[O-])c2)cc1)S(=O)(=O)c1ccccc1`, for which the TGI was > 100 µM.

`COc1ccc(/C(=C/n2ccnc2)C(=O)c2ccc(OC)c(OC)c2)cc1`: the TGI was > 100 µM.

Consider `Clc1cc(N/N=C(/c2ccccc2)c2ncccn2)ncn1`, for which the TGI was > 100 µM.

Take `O=C1CC2(C[C@@H]3CCCCCCCCC[C@@H](C3)C2)N1` (some centres undefined): the TGI amounted to 37.4 µM.

Regarding `CCCN=C1CC(C)Nc2ccccc2N1` (centres undefined), the TGI is > 100 µM.

`CC(C)C(Sc1nc(-c2ccccc2)c(-c2ccccc2)[nH]1)C(=O)NNC(=S)Nc1ccccc1` (centres undefined) gave a TGI of 33 µM.

With `COC1O[C@H]2CCN(C(=O)OCc3ccccc3)[C@H]2[C@H]1OCc1ccccc1` (some centres undefined), the TGI is > 100 µM.

Consider `CC(C)(C)OC(=O)NC(C)(C)C(=O)NCCC(=O)O`, for which the TGI is > 100 µM.

For `CC12CC(c3ccccc3O1)C(C(=O)Nc1ccc(F)cc1)C(=O)N2` (centres undefined), the TGI came to 76.5 µM.

Consider `COc1ccc(C2C(Cl)C(=O)N2NC(=O)c2ccc(NC(C)=O)cc2)cc1` (centres undefined), for which the TGI is > 100 µM.

In the case of `Cc1c(Cl)cccc1NC(=O)C(=O)C1C(=O)CC(C)(C)CC1=O`, the TGI was > 100 µM.

`O=C1O[C@@H](c2ccccc2)C[C@@H]1CN1CCOCC1`: the TGI is > 100 µM.

Take `COc1ccc2nc(-c3ccc(OCc4ccccc4)cc3)ccc2c1`: the TGI is > 100 µM.

Turning to `N#C/C(=C\NC(=S)Nc1ccc(S(=O)(=O)Nc2ccccn2)cc1)C(N)=O`, the TGI was > 100 µM.

On to `COC1(C)CC2N(C(=O)c3ccccc3)N=C(c3ccccc3)CC2(C)O1` (centres undefined), for which the TGI is > 100 µM.

The compound `O=c1oc2ccccc2c(O)c1C(c1cc(OCc2ccccc2)cc(OCc2ccccc2)c1)c1c(O)c2ccccc2oc1=O` registered a TGI of 19.8 µM.

For `Nc1ccccc1Nc1ccccc1C(=O)[O-].Nc1ccccc1Nc1ccccc1C(=O)[O-].[Cu+2]`, the TGI was > 100 µM.

Consider `Cc1cc(-c2nc3ccccc3s2)ccc1NS(=O)(=O)O`, for which the TGI is > 100 µM.

As to `COc1cc(COC(=O)N[C@H](C(=O)O)C(C)(C)C)c([N+](=O)[O-])cc1OC`, the TGI was > 100 µM.

For `Cc1c(/C=N\NC(=S)N2CCN(C(=S)N/N=C\c3c(C)n(C)n(-c4ccccc4)c3=O)CC2)c(=O)n(-c2ccccc2)n1C`, the TGI is > 100 µM.

Turning to `Cc1cc2c(c(C(=O)NCCC(=O)O)c1)Oc1c(cc(C)cc1C(=O)NCCC(=O)O)S2`, the TGI was > 100 µM.

The subject of another assay is HL-60(TB) leukemia. Put plainly: NCI-60 cell line screen, 48 h.
As for `Cc1cn(C2CC(N)C(CN)O2)c(=O)[nH]c1=O` (centres undefined), the TGI was > 100 µM.

Regarding `Nc1nc2ncc(SCc3ccc(C(=O)NC(CCC(=O)O)C(=O)O)cc3)cc2c(=O)[nH]1` (centres undefined), the TGI is > 100 µM.

Compound `CC(C)CC(N)C(=O)OCN1C(=O)C2C3C=CC(C2C1=O)C1C2C(=O)N(COC(=O)C(N)CC(C)C)C(=O)C2C31` (centres undefined) had a TGI of 65.2 µM.

For the compound `CCCCCCCCCC[C@@H](O)[C@H]1CC[C@H]([C@H]2CC[C@H]([C@H](O)CCCCCCCCCC[C@@H]3CC(CC(C)=O)C(=O)O3)O2)O1` (some centres undefined), the GI50 is 2.25 µM; the TGI was 9.6 µM and > 50 µM.

As to `C[N+](C)(C)CC(=O)N/N=c1\cc(C(=O)Nc2ccc(N=O)cc2C#N)oc2cc(O)ccc12`, the TGI is > 100 µM.

`N#CCCN(c1ccc(C=Nc2cccc([N+](=O)[O-])c2)cc1)S(=O)(=O)c1ccccc1`: the TGI was > 100 µM.

`COc1ccc(/C(=C/n2ccnc2)C(=O)c2ccc(OC)c(OC)c2)cc1`: the TGI was > 100 µM.

With `O=C1CC2(C[C@@H]3CCCCCCCCC[C@@H](C3)C2)N1` (some centres undefined), the TGI came to 38.8 µM.

With `CCCN=C1CC(C)Nc2ccccc2N1` (centres undefined), the TGI was > 100 µM.

`CC(C)C(Sc1nc(-c2ccccc2)c(-c2ccccc2)[nH]1)C(=O)NNC(=S)Nc1ccccc1` (centres undefined) had a TGI of 40.1 µM.

Consider `COC1O[C@H]2CCN(C(=O)OCc3ccccc3)[C@H]2[C@H]1OCc1ccccc1` (some centres undefined), for which the TGI stood at 68.6 µM.

The record behind these values is PubChem BioAssay (NCI).
